Series [1] addresses T1, mouse GLP-1 receptor endogenously expressed in βTC6 cells (Mus musculus, UniProt O35659).
T1 construct: host or cells: βTC6 cells
T1 sequence (O35659 22-463): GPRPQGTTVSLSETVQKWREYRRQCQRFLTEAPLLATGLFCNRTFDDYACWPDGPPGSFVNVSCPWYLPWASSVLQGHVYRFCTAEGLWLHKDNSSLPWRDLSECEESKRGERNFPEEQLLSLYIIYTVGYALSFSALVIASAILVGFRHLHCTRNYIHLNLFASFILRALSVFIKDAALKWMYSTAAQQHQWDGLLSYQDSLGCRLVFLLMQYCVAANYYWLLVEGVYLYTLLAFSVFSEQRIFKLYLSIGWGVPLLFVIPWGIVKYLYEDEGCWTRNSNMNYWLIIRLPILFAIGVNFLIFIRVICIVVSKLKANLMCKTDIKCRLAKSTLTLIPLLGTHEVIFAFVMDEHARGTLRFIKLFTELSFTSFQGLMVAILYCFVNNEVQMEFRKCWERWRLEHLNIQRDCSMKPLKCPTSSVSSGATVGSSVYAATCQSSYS
The experiment in a line: cAMP production functional assay (HTRF), agonist activity at GLP-1R. To be noted: for Potency (%), percentage of potency (cAMP production) compared to GLP-1-G^2: Table 2; for Potency (%), percentage of potency compare to GLP-1-G^2: Table 1; for EC50: read-out: EC50 (nM), GLP-1R potency. In kind it is cell-based. As to the method: The agonistic activity of these hybrids were obtained by functional assays using cells expressing the […] and by measuring the receptor-mediated cAMP produced (see supporting information).
In vitro pharmacology (EC50). […] Following incubation, the cells were lysed and the fluorescence acceptor (D2-labeled cAMP) and fluorescence donor (anti-cAMP antibody labeled with europium cryptate) were added.

In another series the target is NEP 24.11 (Homo sapiens, UniProt P08473). The experiment in a line: in vitro. To be noted: pH 8. As to the method:
Enzymatic and mouse plasma degradation studies.
Enzymatic degradation (NEP 24.11). Stock solutions of the oligomers were prepared at a concentration of 400 μM in a solution of 50 mM HEPES buffer, 50 mM NaCl, 0.05% Tween-80, pH 8.0. Stock solution of NEP 24.11 was prepared at a concentration of 100 μg/mL in water. Stability of oligomers to NEP 24.11 was assessed by conducting protease reaction in a 96-well plates at 20° C. […] Each compound was also incubated in the absence of the enzyme (12 μL of HEPES buffer and 38 μL of oligomer). At the indicated time (1, 2, 4, 6 and 22 hours) an aliquot of 10 μL was removed from each experimental reaction and pipetting into 100 μL of 1% TFA solution to quench the reaction, (t=0 min was determined using the reaction without enzyme). A portion of the quenched reaction solution was analyzed by HPLC. The time course of peptide degradation was determined by integrating the area of each peak in a series of HPLC traces.

The conditions of series [2]: pH 7.4. The procedure:
Mouse plasma stability. […] The oligomer was then diluted 1/50 with a solution of plasma/PBS pH 7.4 (1:1) to afford a final concentration of 5 μM and incubated at 37° C. (4 μL of the stock solution was diluted with 196 μL of plasma/PBS, pH 7.4, 1:1) Each compound was also incubated in the absence of plasma (196 μL of H2O/PBS, pH 7.4, 1:1)). At the indicated time (20 min and 60 min) an aliquot of 70 μL was removed from each experimental reaction and pipetting into 175 μL of acetonitrile at 0° C. to quench the reaction, (t=0 min was determined using the reaction without plasma). The samples were frozen before analysis. The frozen sample were defrost, stirred with a vortex 5 min and finally centrifuged 5 min at 16° C. The supernatant was analyzed by LC-MS. The time course of oligomer degradation was determined by integrating the area of the peak in the extracted ion chromatogram.

The test system of series [3] is normal mice (C57BL/6J). In words: Blood glucose experiment in healthy mice. In kind it is in vivo, mouse. Also noted: key to In vivo activity (indicator): + = active; +++: + + + = more active. To be noted: for In vivo activity (indicator): blood glucose, mice, i.v.; for effect on blood glucose concentration / time the decrease of blood glucose is preserved after dosing: fed normal mice, 5 μg/mouse i.v.; for effect on blood glucose concentration: monitored 6 h. The procedure: In the first study, we evaluated the effect of the analogues on the blood glucose concentration of normal mice (FIG. 4). The fed mice were treated with the analogues and their blood glucose concentration was monitored before and after dosing for 6 h. […] Indeed, a decrease of blood glucose concentration is observed after 30 min and the effect is preserved for 4 h after dosing.
Blood glucose experiment in healthy mice. After the acclimation period (at least 5 days), mice (male C57BL/6J mice (Charles River laboratories) (8 weeks old, 20-25 g)) were randomized into 10 groups (n=3/group) according to their body weight. They were acutely treated via i.v. route at 10 AM (5 μg/mouse). Blood glucose was measured before dosing and at 30 min, 1, 2, 4, 6 h after dosing in fed conditions.

For series [4], the system named is normal mice (C57BL/6J). In words: Intra peritoneal glucose tolerance test (IPGTT) in fasted normal mice. In kind it is in vivo, mouse. Conditions: for activity in IPGTT 5 min after dosing, 60 min after the glucose challenge: 65 min after dosing, compared to vehicle; for activity in IPGTT 5 min after dosing: glucose 2 g/kg i.p. As to the method: In a second study, an IPGTT was performed 30 min after i.v. injections of 1, 14 and the vehicle (FIGS. 5B1 and 5B2). […] A further IPGTT study was done with a glucose challenge after 2 h of the dosing to investigate the prolong activity of hybrids 14, 22, and 23 (FIGS. 5C1 and 5C2).
IPGTT experiments in mice. After the acclimation period (at least 5 days), mice (male C57BL/6J mice (Charles River laboratories) (6 weeks old, 20-24 g)) were randomized into 6 groups (n=6/group) according to their body weight. The mice were fasted for 6 h prior being acutely treated via i.v. route (5 μg/mouse i.v. (200 μg/kg, 50 nmol/kg)) formulated at 20 μg/mL in PBS 1×. The IPGTTs were performed (glucose 2 g/kg i.p.) 5 min, 30 min, 2 h or 4 h after dosing and blood glucose was measured 30, 60, 90 and 120 min after the glucose challenge.

[5] abbreviates: receptor-mediated cAMP production, βTC6 cells.

Molecules are shown by their SMILES. Read-outs that look alike come from different tables or passages of the source. Numbered stars: 1 amine (or outer) side, 2 acyl side, 3 side chain; on linkers, the order of the positions; unused ones are H or OH. Bridge positions count the residues as written; N and C are the ends. Peptide text beside a SMILES is read from it. I, II: the chains in the order shown. X2 = C[C@@H](CNC(=O)N[C@@H](C)CNC(=O)N[C@@H](C)CNC(=O)N[C@@H](C)CNC(=O)[*:2])NC(=O)NC[C@H](CCC(=O)O)NC(=O)NC[C@H](Cc1ccc(O)cc1)N[*:1]; X1 = C[C@@H](CNC(=O)N[C@@H](C)CNC(=O)[*:2])NC(=O)NC[C@H](C)N[*:1]

Chain of NEP 24.11 (P08473 whole entry): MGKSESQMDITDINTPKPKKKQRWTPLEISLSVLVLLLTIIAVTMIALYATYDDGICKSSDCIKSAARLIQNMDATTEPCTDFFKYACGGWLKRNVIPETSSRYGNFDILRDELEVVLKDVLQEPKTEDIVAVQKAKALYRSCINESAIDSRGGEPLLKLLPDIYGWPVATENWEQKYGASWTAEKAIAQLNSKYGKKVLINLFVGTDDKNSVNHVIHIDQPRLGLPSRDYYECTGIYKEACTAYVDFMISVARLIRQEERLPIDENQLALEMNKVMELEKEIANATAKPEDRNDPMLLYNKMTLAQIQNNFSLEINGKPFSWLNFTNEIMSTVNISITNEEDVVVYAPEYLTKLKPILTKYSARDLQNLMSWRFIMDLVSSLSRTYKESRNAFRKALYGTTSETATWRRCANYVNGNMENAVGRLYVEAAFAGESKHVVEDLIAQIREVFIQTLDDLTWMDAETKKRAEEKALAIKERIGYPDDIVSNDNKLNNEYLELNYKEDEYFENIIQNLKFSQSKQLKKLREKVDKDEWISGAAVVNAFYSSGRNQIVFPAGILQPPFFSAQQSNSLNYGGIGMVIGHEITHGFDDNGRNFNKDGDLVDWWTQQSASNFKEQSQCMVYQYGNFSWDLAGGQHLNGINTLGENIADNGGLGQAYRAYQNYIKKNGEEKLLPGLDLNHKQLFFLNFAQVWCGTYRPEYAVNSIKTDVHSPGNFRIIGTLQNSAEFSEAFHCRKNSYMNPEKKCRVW

Usually EC50 stands for the midpoint of the concentration-response curve. Broadly, the half-life is the time in which the quantity being followed falls by half. As for `CC[C@H](C)[C@H](NC(=O)[C@H](Cc1ccccc1)NC(=O)[C@H](CCC(=O)O)NC(=O)[C@H](CCCCN)NC(=O)[C@H](C)NC(=O)[C@H](C)NC(=O)[C@H](CCC(N)=O)NC(=O)CNC(=O)[C@H](CCC(=O)O)NC(=O)[C@H](CC(C)C)NC(=O)[C@H](Cc1ccc(O)cc1)NC(=O)[C@H](CO)NC(=O)[C@H](CO)NC(=O)[C@@H](NC(=O)[C@H](CC(=O)O)NC(=O)[C@H](CO)NC(=O)[C@@H](NC(=O)[C@H](Cc1ccccc1)NC(=O)[C@@H](NC(=O)CNC(=O)[C@H](CCC(=O)O)NC(=O)CNC(=O)[C@@H](N)Cc1c[nH]cn1)[C@@H](C)O)[C@@H](C)O)C(C)C)C(=O)N[C@@H](C)C(=O)N[C@@H](Cc1c[nH]c2ccccc12)C(=O)N[C@@H](CC(C)C)C(=O)N[C@H](C(=O)N[C@@H](CCCCN)C(=O)NCC(=O)N[C@@H](CCCNC(=N)N)C(=O)NCC(N)=O)C(C)C` [Compound 1, GLP-1-G^2, reference compound], in series [1], the “Potency (%), percentage of potency (cAMP production) compared to GLP-1-G^2” value (from here on “Potency (%), percentage … compared to GLP-1-G^2”) is 100% and the 50% effective concentration (EC50) was 0.24 nM. In addition, in series [1] (cAMP production), the “times less potent than GLP-1” value came to 2.5 times and the “Potency (%), percentage of potency compare to GLP-1-G^2” value amounted to 100%. This molecule showed a half-life on NEP 24.11 of 3.6 h. In addition, in series [2], the “Mouse Plasma t1/2” value was 0.267 h. Further, in the series on normal mice (C57BL/6J) [3], the “In vivo activity (indicator)” value is reported as “+” and the “effect on blood glucose concentration” value is “decreased of blood glucose concentration after 30 min”. Besides, the “activity in IPGTT 5 min after dosing, 60 min after the glucose challenge” value with normal mice (C57BL/6J) [4] was “no more significant effect”. Also, in the series on normal mice (C57BL/6J) [4] (fasted mice, 200 μg/kg i.v.), the “IPGTT 2 h after dosing” value is given as “IPGTT curve similar to the vehicle”, the “activity in IPGTT 30 min after dosing” value is “inactive” and the “activity in IPGTT 5 min after dosing” value was “active”.

Take `CC[C@H](C)[C@H](NC(=O)[C@H](Cc1ccccc1)NC(=O)NC[C@H](C)NC(=O)NC[C@H](C)NC(=O)NC[C@H](C)NC(=O)[C@H](CCC(N)=O)NC(=O)CNC(=O)[C@H](CCC(=O)O)NC(=O)[C@H](CC(C)C)NC(=O)[C@H](Cc1ccc(O)cc1)NC(=O)[C@H](CO)NC(=O)[C@H](CO)NC(=O)[C@@H](NC(=O)[C@H](CC(=O)O)NC(=O)[C@H](CO)NC(=O)[C@@H](NC(=O)[C@H](Cc1ccccc1)NC(=O)[C@@H](NC(=O)CNC(=O)[C@H](CCC(=O)O)NC(=O)CNC(=O)[C@@H](N)Cc1c[nH]cn1)[C@@H](C)O)[C@@H](C)O)C(C)C)C(=O)N[C@@H](C)C(=O)N[C@@H](Cc1c[nH]c2ccccc12)C(=O)N[C@@H](CC(C)C)C(=O)N[C@H](C(=O)N[C@@H](CCCCN)C(=O)NCC(=O)N[C@@H](CCCNC(=N)N)C(=O)NCC(N)=O)C(C)C` [Compound 14, GG2[A^UA^UA^U]^18-21] (I: H-HGEGTFTSDVSSYLEGQ / II: FIAWLVKGRG-NH2; linker I:C-II:N via X1): in series [1], the “Potency (%), percentage … compared to GLP-1-G^2” value amounted to 6%. In series [1] (cAMP production), the “Potency (%), percentage of potency compare to GLP-1-G^2” value stood at 6%. In addition, in series [1] (setting [5]), the EC50 came out at 4.1 nM. The molecule further gave a half-life at […] on NEP 24.11 of 4.9 h. In the series on normal mice (C57BL/6J) [3], the “In vivo activity (indicator)” value is reported as “+++”, the “time the decrease of blood glucose is preserved after dosing” value came out at 4 h and the “effect on blood glucose concentration” value is “improved efficacy”. The “activity in IPGTT 5 min after dosing, 60 min after the glucose challenge” value with normal mice (C57BL/6J) [4] is on record as “still active”. Besides, in the series on normal mice (C57BL/6J) [4] (fasted mice, 200 μg/kg i.v.), the “IPGTT 2 h after dosing” value is listed as “good control of the blood glucose concentration”, the “IPGTT 4 h after dosing” value is “still active after 6 h of the treatment”, the “activity in IPGTT 30 min after dosing” value is “full activity” and the “activity in IPGTT 5 min after dosing” value was “active”.

With `CC[C@H](C)[C@H](NC(=O)[C@H](Cc1ccccc1)NC(=O)NC[C@H](C)NC(=O)NC[C@H](C)NC(=O)NC[C@H](C)NC(=O)NC[C@H](C)NC(=O)NC[C@H](CCC(=O)O)NC(=O)NC[C@H](Cc1ccc(O)cc1)NC(=O)[C@H](Cc1ccc(O)cc1)NC(=O)[C@H](CO)NC(=O)[C@H](CO)NC(=O)[C@@H](NC(=O)[C@H](CC(=O)O)NC(=O)[C@H](CO)NC(=O)[C@@H](NC(=O)[C@H](Cc1ccccc1)NC(=O)[C@@H](NC(=O)CNC(=O)[C@H](CCC(=O)O)NC(=O)CNC(=O)[C@@H](N)Cc1c[nH]cn1)[C@@H](C)O)[C@@H](C)O)C(C)C)C(=O)N[C@@H](C)C(=O)N[C@@H](Cc1c[nH]c2ccccc12)C(=O)N[C@@H](CC(C)C)C(=O)N[C@H](C(=O)N[C@@H](CCCCN)C(=O)NCC(=O)N[C@@H](CCCNC(=N)N)C(=O)NCC(N)=O)C(C)C` [Compound 23, GG2[Y^uE^uA^uA^uA^uA^u]^14-21] (I: H-HGEGTFTSDVSSY / II: FIAWLVKGRG-NH2; linker I:C-II:N via X2), in series [1], the “Potency (%), percentage … compared to GLP-1-G^2” value came to 7%. The “Potency (%), percentage of potency compare to GLP-1-G^2” value in series [1] (cAMP production) is given as 7%. The EC50 in series [1] (setting [5]) stood at 3.4 nM. At NEP 24.11, this molecule showed a half-life at […] of 6.1 h. In the series with normal mice (C57BL/6J) [3], the “In vivo activity (indicator)” value is given as “+++”, the “time the decrease of blood glucose is preserved after dosing” value was 4 h and the “effect on blood glucose concentration” value is recorded as “improved efficacy”. For the same molecule, in the series on normal mice (C57BL/6J) [4] (fasted mice, 200 μg/kg i.v.), the “IPGTT 2 h after dosing” value was “good control of the blood glucose concentration”.

Source of the values: patent publication US11285219B2, “Peptide-oligourea hybrid compounds” (UREKA SARL, priority 2019, dated 2022).
